Consider 2 compounds from ChEMBL document CHEMBL1921801, “Discovery and optimization of 2-phenyloxazole derivatives as diacylglycerol acyltransferase-1 inhibitors” (Bioorg Med Chem Lett, 2011).

Series [1] is described as follows: Volume of distribution in Wistar rat at 5 mg/kg, iv. In kind it is ADME, organism-based. Also on record: dose 5 mg/kg, route intravenous. Conditions: in vivo.
Series [2] is described as follows: AUC in Wistar rat at 5 mg/kg, iv. In kind it is ADME, organism-based. Also on record: dose 5 mg/kg, route intravenous. As to conditions: plasma.
Series [3] is described as follows: Half life in Wistar rat at 5 mg/kg, iv. In kind it is ADME, organism-based. The arrangement: dose 5 mg/kg, route intravenous. As to conditions: in vivo.
Series [4] has as its system Rattus norvegicus. The series can be described thus: Cmax in Wistar rat at 50 mg/kg, po. In kind it is ADME, organism-based. The arrangement: dose 50 mg/kg, route oral. As to conditions: in vivo.
A short description of series [5]: AUC in Wistar rat at 50 mg/kg, po. The format is ADME, organism-based. Also on record: dose 50 mg/kg, route oral. As to conditions: plasma.
Series [6] can be described thus: Tmax in Wistar rat at 50 mg/kg, po. The format is ADME, organism-based. Also on record: dose 50 mg/kg, route oral. As to conditions: in vivo.
Series [7] in a line: Oral bioavailability in Wistar rat at 50 mg/kg. As to conditions: in vivo. In kind it is ADME, organism-based.
Series [8] relates to Rattus norvegicus. The series can be described thus: Antiobesity activity in po dosed diet induced obese Sprague-Dawley rat model assessed as reduction in weight gain administered qd for 3 weeks relative to vehicle treated control. The format is functional, organism-based.
In series [9] the test system is Rattus norvegicus. The series can be described thus: Antiobesity activity in diet induced obese Sprague-Dawley rat model assessed as reduction in weight gain at 25 mg/kg, po qd for 3 weeks measured on day 21 relative to vehicle treated control. Also on record: scale not given: the % may be the effect or the level left. The format is functional.
Series [10] deals with Rattus norvegicus. The series can be described thus: Antiobesity activity in diet induced obese Sprague-Dawley rat model assessed as reduction in weight gain at 50 mg/kg, po qd for 3 weeks measured on day 21 relative to vehicle treated control. In kind it is functional. The arrangement: scale not given: the % may be the effect or the level left.
Series [11] in a line: Cmax in diet induced obese Sprague-Dawley rat model at 5 mg/kg, po qd for 3 weeks measured on day 21. The format is ADME, organism-based. Also on record: dose 5 mg/kg, route oral. As to conditions: in vivo.
The nature of series [12]: Cmax in diet induced obese Sprague-Dawley rat model at 25 mg/kg, po qd for 3 weeks measured on day 21. In kind it is ADME, organism-based. The arrangement: dose 25 mg/kg, route oral. Conditions: in vivo.
In series [13] the test system is Rattus norvegicus. Kind of series: Cmax in diet induced obese Sprague-Dawley rat model at 50 mg/kg, po qd for 3 weeks measured on day 21. In kind it is ADME, organism-based. The arrangement: dose 50 mg/kg, route oral. As to conditions: in vivo, 504 h.
Series [14] has as its system Rattus norvegicus. Kind of series: Antiobesity activity in diet induced obese Sprague-Dawley rat model assessed as reduction in plasma triglycerides level at 50 mg/kg, po qd for 3 weeks measured on day 21 relative to vehicle treated control. The format is functional. The arrangement: scale not given: the % may be the effect or the level left.
Series [15] relates to Rattus norvegicus. The series can be described thus: Antiobesity activity in diet induced obese Sprague-Dawley rat model assessed as reduction in plasma free fatty acid level at 50 mg/kg, po qd for 3 weeks measured on day 21. In kind it is functional, organism-based. Also on record: dose 50 mg/kg.
The subject of series [16] is Rattus norvegicus. The series can be described thus: Antiobesity activity in diet induced obese Sprague-Dawley rat model assessed as reduction in total cholesterol level at 50 mg/kg, po qd for 3 weeks measured on day 21. The format is functional, organism-based. The arrangement: dose 50 mg/kg.
For series [17], the system named is Rattus norvegicus. Kind of series: Antiobesity activity in diet induced obese Sprague-Dawley rat model assessed as decrease in fat pad mass at 50 mg/kg, po qd for 3 weeks measured on day 21 relative to vehicle treated control. The format is functional, organism-based. The arrangement: dose 50 mg/kg.
Series [18] deals with Rattus norvegicus. Kind of series: Antiobesity activity in diet induced obese Sprague-Dawley rat model assessed as decrease in lean muscle at 50 mg/kg, po qd for 3 weeks measured on day 21 relative to vehicle treated control. The format is functional, organism-based. The arrangement: dose 50 mg/kg.
Series [19] has as its system Rattus norvegicus. Kind of series: Toxicity in diet induced obese Sprague-Dawley rat model assessed as change in liver weight administered orally after 22 days. In kind it is organism-based. As to conditions: in vivo, po, 528 h.
The subject of series [20] is Rattus norvegicus. Kind of series: Toxicity in diet induced obese Sprague-Dawley rat model assessed as change in heart weight administered orally after 22 days. The format is organism-based. As to conditions: in vivo, po, 528 h.
The subject of series [21] is Rattus norvegicus. The series can be described thus: Toxicity in diet induced obese Sprague-Dawley rat model assessed as change in brain weight administered orally after 22 days. In kind it is organism-based. Conditions: in vivo, po, 528 h.
For series [22], the system named is Rattus norvegicus. Kind of series: Toxicity in diet induced obese Sprague-Dawley rat model assessed as change in kidney weight administered orally after 22 days. Conditions: in vivo, po, 528 h. The format is organism-based.
Series [23] has as its system Rattus norvegicus. Kind of series: Toxicity in diet induced obese Sprague-Dawley rat model assessed as change in liver enzyme activity administered orally after 22 days. The format is organism-based. Conditions: in vivo, po, 528 h.
The nature of series [24]: Genotoxicity in micronucleus by micronucleus assay.
Series [25] concerns Salmonella typhimurium. The series can be described thus: Mutagenic activity in Salmonella Typhimurium by Ames test. As to conditions: salmonella enterica subsp. enterica serovar typhimurium. The format is toxicity, organism-based. Background: The Ames test detects mutagens through reverse mutation in bacteria.
Series [26] is filed under the species Cavia porcellus. The series can be described thus: Cardiotoxicity in guinea pig Langendorff heart model assessed as QT prolongation at >= 0.47 uM. The format is toxicity.
Series [27] concerns Rattus norvegicus. The series can be described thus: Antiobesity activity in po dosed diet induced obese Sprague-Dawley rat model assessed as reduction in plasma triglycerides level administered qd for 3 weeks measured on day 21. The format is functional, organism-based.
The target of series [28] is T1, Diacylglycerol O-acyltransferase 1 (Rattus norvegicus, UniProt Q9ERM3).
T1 sequence (Q9ERM3 whole entry): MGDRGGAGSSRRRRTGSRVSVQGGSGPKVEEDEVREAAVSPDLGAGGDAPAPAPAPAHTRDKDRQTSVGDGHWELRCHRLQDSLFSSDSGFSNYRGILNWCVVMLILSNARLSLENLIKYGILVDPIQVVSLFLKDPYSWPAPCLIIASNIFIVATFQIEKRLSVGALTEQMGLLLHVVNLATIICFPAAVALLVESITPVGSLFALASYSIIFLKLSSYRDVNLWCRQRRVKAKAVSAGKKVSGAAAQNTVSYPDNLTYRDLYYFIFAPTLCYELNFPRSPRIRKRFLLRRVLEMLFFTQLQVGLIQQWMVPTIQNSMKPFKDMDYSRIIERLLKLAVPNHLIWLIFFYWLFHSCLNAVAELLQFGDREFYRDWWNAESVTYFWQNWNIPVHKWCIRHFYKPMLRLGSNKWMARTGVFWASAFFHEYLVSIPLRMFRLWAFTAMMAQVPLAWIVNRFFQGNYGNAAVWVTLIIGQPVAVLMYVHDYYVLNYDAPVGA
Kind of series: Inhibition of rat DGAT1.

Series [29] can be described thus: Kinetic solubility of the compound in phosphate buffered saline at pH 6.5. As to conditions: read-out: Kinetic_solubility. In kind it is physicochemical.
The nature of series [30]: Solubility of the compound in simulated gastric fluid. The format is physicochemical.
Series [31] is described as follows: Fraction unbound in human serum. In kind it is ADME, cell-free.
A short description of series [32]: Solubility of the compound. In kind it is physicochemical.

Values after ≈ are worked out from the molar mass of the structure shown. Active and inactive are the calls of the source.

For the compound `COCCN(C)c1ccc(NC(=O)c2nc(-c3ccccc3)oc2C(F)(F)F)cn1`, the volume of distribution (Vd) – broadly, the apparent volume that relates the amount in the body to the concentration in plasma or blood – in series [1] was 1.6 L/kg. Besides, the AUC – broadly, concentration integrated over time – in series [2] amounted to 6.16 µg·h/mL; in [5], 47.2 µg·h/mL. The half-life (in general, the time needed for the level to fall by half in the phase considered) in series [3] is 1.95 h. The peak concentration (Cmax) (in general, the maximum level reached in the sampled fluid or tissue) in [4] stood at 10.2 µg/mL; in series [11] it was 2.6 µM; in series [12], 7.8 µM; in series [13], 12.2 µM. Further, the Tmax (in general, the time from dosing to the highest level) in [6] is 1 h. In addition, the bioavailability (as a rule, the share of a dose that reaches the circulation, judged against a reference dose that is usually intravenous) in series [7] is 77%. Moreover, the Activity result in [8] is “Dose-dependent effect”; in [9] it was 4%; in series [10], 8%; in series [14] it was 64%; in series [19], “Non-toxic”; in series [20], “Non-toxic”. The Activity result is “Non-toxic” in [21]; “Non-toxic” in [22]; “Non-toxic” in [23]; “Non-toxic” in series [24]; “Non-toxic” in series [25]; “Toxic” in series [26]. For the same compound, the Activity entry in [27] was “Dose-dependent effect”. Moreover, the outcome in [15], in series [16] and in series [17] was Active. Further, the result in series [18] was inactive. Further, 0.12 µM corresponded to half-maximal inhibition in series [28] (IC50). Besides, the solubility kinetic in [29] stood at 0.001 mg/mL (≈ 2.38 µM). In series [30], the concentration in solution (solubility) was 0.77 mg/mL (≈ 1830 µM). In [31], the fraction unbound (as a rule, free concentration divided by total concentration) is 0.015.
`CCCn1[nH]c(=O)c2cc(NC(=O)c3nc(-c4ccccc4)oc3C(F)(F)F)ccc21`: in series [32], the solubility (as a rule, the concentration that dissolves in the medium under given conditions) was “Insoluble”.
